Measurements reported in patent publication US12077503B2, “Substituted cyclic amides and their use as herbicides” (FMC CORPORATION, priority 2015, dated 2024).

Experiments:
Assay type in all cases: in vivo
[1] = tested on: barnyardgrass (Echinochloa crus-galli); assay: Test A preemergence; settings: Echinochloa crus-galli, pre-emergence, 240 h, preemergence, 0 to 100 scale where 0 is no effect and 100 is complete control, read-out: Barnyardgrass plant response rating; for pest or weed control at 125 g/ha: 125 g ai/ha, visual injury rating, approximately 10 d; for pest or weed control at 500 g/ha: 500 g ai/ha
Summary of the method: (§1)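 Treatment is preemergence as a directed soil spray after planting, or postemergence at the one- to two-leaf stage, with test chemical in a non-phytotoxic solvent mixture plus surfactant. Plants stay in the greenhouse about 10 d before visual injury scoring on a 0 to 100 scale versus untreated controls.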

[2] = tested on: giant foxtail (Setaria faberii); assay: Test A preemergence; settings: Setaria faberi, pre-emergence, 240 h, preemergence, 0 to 100 scale where 0 is no effect and 100 is complete control, read-out: Foxtail, Giant plant response rating; for pest or weed control at 125 g/ha: 125 g ai/ha, visual injury rating, approximately 10 d; for pest or weed control at 500 g/ha: 500 g ai/ha
Summary of the method: as §1

[3] = tested on: ragweed (common ragweed, Ambrosia elatior); assay: Test A preemergence; settings: Ambrosia artemisiifolia, pre-emergence, 240 h, preemergence, 0 to 100 scale where 0 is no effect and 100 is complete control, read-out: Ragweed plant response rating; for pest or weed control at 125 g/ha: 125 g ai/ha, visual injury rating, approximately 10 d; for pest or weed control at 500 g/ha: 500 g ai/ha
Summary of the method: as §1

[4] = tested on: ryegrass, Italian (Italian ryegrass, Lolium multiflorum); assay: Test A preemergence; settings: Lolium multiflorum, pre-emergence, 240 h, preemergence, 0 to 100 scale where 0 is no effect and 100 is complete control, read-out: Ryegrass, Italian plant response rating; for pest or weed control at 125 g/ha: 125 g ai/ha, visual injury rating, approximately 10 d; for pest or weed control at 500 g/ha: 500 g ai/ha
Summary of the method: as §1

Kochia (Kochia scoparia) [5] = assay: Test A preemergence; settings: Bassia scoparia, pre-emergence, 240 h, preemergence, 0 to 100 scale where 0 is no effect and 100 is complete control, read-out: Kochia plant response rating; for pest or weed control at 125 g/ha: 125 g ai/ha, visual injury rating, approximately 10 d; for pest or weed control at 500 g/ha: 500 g ai/ha
Summary of the method: as §1

[6] = tested on: Galium (catchweed bedstraw, Galium aparine); assay: Test A postemergence; settings: Galium, post-emergence, 240 h, Postemergence; for pest or weed control at 125 g/ha: 125 g ai/ha, visual rating about 10 d after treatment, read-out: Galium plant response rating (0 to 100 scale); for pest or weed control at 500 g/ha: 500 g ai/ha, visual injury, 0 to 100 scale (0 no effect, 100 complete control), approx. 10 d, read-out: Plant response rating, Galium
Summary of the method: as §1

[7] = tested on: barnyardgrass (Echinochloa crus-galli); assay: Test A postemergence; settings: Echinochloa crus-galli, post-emergence, 240 h, Postemergence; for pest or weed control at 125 g/ha: 125 g ai/ha, visual rating about 10 d after treatment, read-out: Barnyardgrass plant response rating (0 to 100 scale, 0 no effect, 100 complete control); for pest or weed control at 500 g/ha: 500 g ai/ha, visual injury, 0 to 100 scale (0 no effect, 100 complete control), approx. 10 d, read-out: Plant response rating, Barnyardgrass
Summary of the method: as §1

[8] = tested on: pigweed (Amaranthus retroflexus); assay: Test A postemergence; settings: Amaranthus retroflexus, post-emergence, 240 h, Postemergence; for pest or weed control at 125 g/ha: 125 g ai/ha, visual rating about 10 d after treatment, read-out: Pigweed plant response rating (0 to 100 scale); for pest or weed control at 500 g/ha: 500 g ai/ha, visual injury, 0 to 100 scale (0 no effect, 100 complete control), approx. 10 d, read-out: Plant response rating, Pigweed
Summary of the method: as §1

corn (Zea mays) = assay: Test A postemergence; settings: Zea mays, post-emergence, 240 h, Postemergence; for plant injury at 125 g/ha: 125 g ai/ha, visual rating about 10 d after treatment, read-out: Corn plant response rating (0 to 100 scale); for Corn plant response rating (crop injury, 0 = no effect, 100 = complete kill) at 500 g/ha: 500 g ai/ha, visual injury, 0 to 100 scale (0 no effect, 100 complete control), approx. 10 d
Summary of the method: as §1

[9] = tested on: wheat (Triticum aestivum); assay: Test A postemergence; settings: Triticum aestivum, post-emergence, 240 h, Postemergence; for plant injury at 125 g/ha: 125 g ai/ha, visual rating about 10 d after treatment, read-out: Wheat plant response rating (0 to 100 scale); for plant injury at 500 g/ha: 500 g ai/ha, visual injury, 0 to 100 scale (0 no effect, 100 complete control), approx. 10 d, read-out: Plant response rating, Wheat
Summary of the method: as §1

[10] = tested on: giant foxtail (Setaria faberii); assay: Test A postemergence; settings: Setaria faberi, post-emergence, 240 h, Postemergence; for pest or weed control at 125 g/ha: 125 g ai/ha, visual rating about 10 d after treatment, read-out: Foxtail, Giant plant response rating (0 to 100 scale); for pest or weed control at 500 g/ha: 500 g ai/ha, visual injury, 0 to 100 scale (0 no effect, 100 complete control), approx. 10 d, read-out: Plant response rating, Foxtail, Giant
Summary of the method: as §1

[11] = tested on: ragweed (common ragweed, Ambrosia elatior); assay: Test A postemergence; settings: Ambrosia artemisiifolia, post-emergence, 240 h, Postemergence; for pest or weed control at 125 g/ha: 125 g ai/ha, visual rating about 10 d after treatment, read-out: Ragweed plant response rating (0 to 100 scale); for pest or weed control at 500 g/ha: 500 g ai/ha, visual injury, 0 to 100 scale (0 no effect, 100 complete control), approx. 10 d, read-out: Plant response rating, Ragweed
Summary of the method: as §1

[12] = tested on: blackgrass (Alopecurus myosuroides); assay: Test A postemergence; settings: Alopecurus myosuroides, post-emergence, 240 h, Postemergence; for pest or weed control at 125 g/ha: 125 g ai/ha, visual rating about 10 d after treatment, read-out: Blackgrass plant response rating (0 to 100 scale); for pest or weed control at 500 g/ha: 500 g ai/ha, visual injury, 0 to 100 scale (0 no effect, 100 complete control), approx. 10 d, read-out: Plant response rating, Blackgrass
Summary of the method: as §1

[13] = tested on: ryegrass, Italian (Italian ryegrass, Lolium multiflorum); assay: Test A postemergence; settings: Lolium multiflorum, post-emergence, 240 h, Postemergence; for pest or weed control at 125 g/ha: 125 g ai/ha, visual rating about 10 d after treatment, read-out: Ryegrass, Italian plant response rating (0 to 100 scale); for pest or weed control at 500 g/ha: 500 g ai/ha, visual injury, 0 to 100 scale (0 no effect, 100 complete control), approx. 10 d, read-out: Plant response rating, Ryegrass, Italian
Summary of the method: as §1

Kochia (Kochia scoparia) [14] = assay: Test A postemergence; settings: Bassia scoparia, post-emergence, 240 h, Postemergence; for pest or weed control at 125 g/ha: 125 g ai/ha, visual rating about 10 d after treatment, read-out: Kochia plant response rating (0 to 100 scale); for pest or weed control at 500 g/ha: 500 g ai/ha, visual injury, 0 to 100 scale (0 no effect, 100 complete control), approx. 10 d, read-out: Plant response rating, Kochia
Summary of the method: as §1

| SMILES | pest or weed control at 125 g/ha [1] [%] | pest or weed control at 500 g/ha [1] [%] | pest or weed control at 125 g/ha [2] [%] | pest or weed control at 500 g/ha [2] [%] | pest or weed control at 125 g/ha [3] [%] | pest or weed control at 500 g/ha [3] [%] | pest or weed control at 125 g/ha [4] [%] | pest or weed control at 500 g/ha [4] [%] | pest or weed control at 125 g/ha (Kochia (Kochia scoparia) [5]) [%] | pest or weed control at 500 g/ha (Kochia (Kochia scoparia) [5]) [%] | pest or weed control at 125 g/ha [6] [%] | pest or weed control at 500 g/ha [6] [%] | pest or weed control at 125 g/ha [7] [%] | pest or weed control at 500 g/ha [7] [%] | pest or weed control at 125 g/ha [8] [%] | pest or weed control at 500 g/ha [8] [%] | plant injury at 125 g/ha (corn (Zea mays)) [%] | Corn plant response rating (crop injury, 0 = no effect, 100 = complete kill) at 500 g/ha (corn (Zea mays)) [%] | plant injury at 125 g/ha [9] [%] | plant injury at 500 g/ha [9] [%] | further results |
| --- | --- | --- | --- | --- | --- | --- | --- | --- | --- | --- | --- | --- | --- | --- | --- | --- | --- | --- | --- | --- | --- |
| COc1cc([C@H]2CN(C)C(=O)[C@@H]2C(=O)Nc2cccc(F)c2F)ccc1F [Compound 1299] | 90 | 90 | 90 | 90 | 30 | 70 | 30 | 70 | 70 | 70 | 40 | 50 | 90 | 90 | 0 | 0 | 40 | 80 | 30 | 40 | pest or weed control at 125 g/ha [10]: 90%; pest or weed control at 500 g/ha [10]: 90%; pest or weed control at 125 g/ha [11]: 0%; pest or weed control at 500 g/ha [11]: 20%; pest or weed control at 125 g/ha [12]: 20%; pest or weed control at 500 g/ha [12]: 60%; pest or weed control at 125 g/ha [13]: 20%; pest or weed control at 500 g/ha [13]: 60%; pest or weed control at 125 g/ha (Kochia (Kochia scoparia) [14]): 0%; pest or weed control at 500 g/ha (Kochia (Kochia scoparia) [14]): 60% |
| COc1cc([C@H]2CN(C)C(=O)[C@@H]2C(=O)Nc2ccccc2SC)ccc1F [Compound 1301] | 30 | 90 | 90 | 90 | 0 | 20 | 0 | 0 | 30 | 60 | 20 | 60 | 20 | 90 | 0 | 0 | 0 | 0 | 0 | 0 | pest or weed control at 125 g/ha [10]: 20%; pest or weed control at 500 g/ha [10]: 20%; pest or weed control at 125 g/ha [11]: 0%; pest or weed control at 500 g/ha [11]: 0%; pest or weed control at 125 g/ha [12]: 0%; pest or weed control at 500 g/ha [12]: 0%; pest or weed control at 125 g/ha [13]: 0%; pest or weed control at 500 g/ha [13]: 0%; pest or weed control at 125 g/ha (Kochia (Kochia scoparia) [14]): 0%; pest or weed control at 500 g/ha (Kochia (Kochia scoparia) [14]): 50% |
| Cc1c(F)cccc1NC(=O)[C@H]1C(=O)NC[C@@H]1c1cccc2c1OC(F)(F)O2 [Compound 1305] | 70 | 90 | 90 | 90 | 0 | 0 | 0 | 0 | 0 | 0 | 0 | 0 | 60 | 80 | 0 | 0 | 0 | 0 | 0 | 20 | pest or weed control at 125 g/ha [10]: 80%; pest or weed control at 500 g/ha [10]: 90%; pest or weed control at 125 g/ha [11]: 0%; pest or weed control at 500 g/ha [11]: 0%; pest or weed control at 125 g/ha [12]: 0%; pest or weed control at 500 g/ha [12]: 0%; pest or weed control at 125 g/ha [13]: 0%; pest or weed control at 500 g/ha [13]: 0%; pest or weed control at 125 g/ha (Kochia (Kochia scoparia) [14]): 0%; pest or weed control at 500 g/ha (Kochia (Kochia scoparia) [14]): 0% |
